Experiment [1] can be described thus: Antioxidant activity assessed as ABTS radical scavenging activity. The experiment is classed as functional.
The nature of experiment [2]: Antioxidant activity against […]-induced hemolysis of erythrocytes assessed as lag time of inhibition. It counts as functional, Erythrocyte.
For a further experiment, the system named is Erythrocyte. Nature of the experiment: Antioxidant activity assessed as protection against hemin-induced erythrocytes hemolysis up to 1 uM. The experiment is classed as functional, cell-based.
Experiment [3] is described as follows: Antioxidant activity assessed as galvinoxyl radical scavenging activity. It counts as functional.
In experiment [4] the test system is Radical scavenging activity. In words: Antioxidant activity assessed as DPPH radical scavenging activity. It counts as functional. (In general: Loss of DPPH colour is used to gauge radical scavenging.)
Experiment [5] in a line: Antioxidant activity against […]-induced DNA damage assessed as inhibition time. It counts as functional.
Experiment [6] is described as follows: Antioxidant activity assessed as protection against hemin-induced erythrocytes hemolysis at 0.6 uM. The settings on record: Erythrocyte. The experiment is classed as functional.

Active and inactive are the calls of the source. No cut-off for these calls is given here.

In the case of `OC[C@H]1O[C@@H](n2cnc3c(S)ncnc32)[C@H](O)[C@@H]1O` [THIOINOSINE], the IC50 (usually the concentration that gives 50% inhibition) in experiment [1] stood at 3.9 µM; in experiment [3], 65 µM; in experiment [4], 180 µM. Further, in experiment [2], the Time is 482 min. The result with Erythrocyte was inactive. The TIME in experiment [5] is 3.12 h.
For `C[C@H](CS)C(=O)N1CCC[C@H]1C(=O)O` [CAPTOPRIL], the figures for the IC50 in experiment [1], in experiment [3] and in experiment [4] were 6.5 µM, 7.1 µM and 43 µM, respectively. Besides, the Time in experiment [2] amounted to 270 min. The TIME in experiment [5] came out at 3.38 h. Also, in experiment [6], the inhibition (in general, the percentage by which the read-out fell short of the control) at 0.6 µM amounted to 80%.
Take `Cc1c(C)c2c(c(C)c1O)CCC(C)(C(=O)O)O2` (stereo not given) [TROLOX]: the IC50 turned out to be 11.6 µM in experiment [1] and 22.8 µM in experiment [4].
Regarding `Sc1ncnc2nc[nH]c12` [MERCAPTOPURINE ANHYDROUS], the IC50 was found to be 4.7 µM in experiment [1], 188 µM in experiment [3] and 65 µM in experiment [4]. The Time in experiment [2] was 406 min. Besides, the outcome with Erythrocyte was inactive. Also, the TIME in experiment [5] was found to be 3 h.
